{"source": "patent US6972296B2", "about": "“Carboxylic acid derivatives that inhibit the binding of integrins to their receptors” (Encysive Pharmaceuticals Inc., priority 1999, dated 2005)", "data": [{"molecular_target": "T1, α4β1 integrin (Homo sapiens, UniProt P05556+P13612)", "T1 construct": "endogenous in cells; host or cells: Ramos cells", "T1 sequence (P13612 34-1032)": "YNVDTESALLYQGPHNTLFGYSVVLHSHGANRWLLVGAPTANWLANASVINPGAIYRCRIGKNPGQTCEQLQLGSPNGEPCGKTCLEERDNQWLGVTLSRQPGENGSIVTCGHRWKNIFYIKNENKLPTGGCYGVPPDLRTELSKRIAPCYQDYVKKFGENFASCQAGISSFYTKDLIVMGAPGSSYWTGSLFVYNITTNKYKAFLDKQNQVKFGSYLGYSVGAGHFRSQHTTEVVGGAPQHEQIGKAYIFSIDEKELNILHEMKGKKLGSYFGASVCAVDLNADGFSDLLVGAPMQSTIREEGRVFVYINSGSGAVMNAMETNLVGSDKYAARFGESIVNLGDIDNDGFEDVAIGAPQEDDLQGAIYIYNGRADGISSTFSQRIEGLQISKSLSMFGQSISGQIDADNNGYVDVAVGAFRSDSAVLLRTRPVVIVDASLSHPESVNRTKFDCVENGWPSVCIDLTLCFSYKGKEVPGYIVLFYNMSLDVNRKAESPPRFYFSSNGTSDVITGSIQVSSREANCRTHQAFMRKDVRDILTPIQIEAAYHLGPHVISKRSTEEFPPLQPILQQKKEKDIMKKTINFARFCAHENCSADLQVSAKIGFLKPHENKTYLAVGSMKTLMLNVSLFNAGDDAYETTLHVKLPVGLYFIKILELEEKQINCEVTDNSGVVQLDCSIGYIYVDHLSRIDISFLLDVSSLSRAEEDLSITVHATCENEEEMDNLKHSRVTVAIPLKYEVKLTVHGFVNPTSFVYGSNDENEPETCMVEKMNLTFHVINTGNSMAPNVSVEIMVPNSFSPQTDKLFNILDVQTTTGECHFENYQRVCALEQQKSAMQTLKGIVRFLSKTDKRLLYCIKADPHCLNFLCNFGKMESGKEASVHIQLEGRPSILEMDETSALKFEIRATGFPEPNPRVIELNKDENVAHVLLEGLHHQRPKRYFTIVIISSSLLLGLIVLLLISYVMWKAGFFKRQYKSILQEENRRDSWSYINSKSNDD", "T1 sequence (P05556 21-798)": "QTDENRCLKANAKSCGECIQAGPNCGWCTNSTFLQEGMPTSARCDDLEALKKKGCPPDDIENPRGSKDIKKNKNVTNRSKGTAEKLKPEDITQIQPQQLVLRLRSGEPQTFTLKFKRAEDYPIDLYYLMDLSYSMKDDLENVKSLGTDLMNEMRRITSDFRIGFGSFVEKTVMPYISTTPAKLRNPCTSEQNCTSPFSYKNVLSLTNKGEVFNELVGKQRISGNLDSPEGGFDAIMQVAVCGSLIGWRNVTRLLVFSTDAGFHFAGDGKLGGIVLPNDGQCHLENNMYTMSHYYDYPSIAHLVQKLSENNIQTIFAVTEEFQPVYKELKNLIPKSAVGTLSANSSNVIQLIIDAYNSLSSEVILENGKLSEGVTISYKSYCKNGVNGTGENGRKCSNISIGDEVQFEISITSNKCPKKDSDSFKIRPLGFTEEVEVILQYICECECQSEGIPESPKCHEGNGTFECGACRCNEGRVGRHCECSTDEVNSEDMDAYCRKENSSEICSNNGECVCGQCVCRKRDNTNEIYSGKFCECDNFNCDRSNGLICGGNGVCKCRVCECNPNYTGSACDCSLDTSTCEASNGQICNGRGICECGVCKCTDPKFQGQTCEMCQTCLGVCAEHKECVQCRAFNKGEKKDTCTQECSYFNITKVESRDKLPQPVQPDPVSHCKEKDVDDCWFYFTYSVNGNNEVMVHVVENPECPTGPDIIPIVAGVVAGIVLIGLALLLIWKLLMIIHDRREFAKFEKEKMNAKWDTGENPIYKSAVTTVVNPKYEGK", "experiment": "Adhesion of calcein-labeled Ramos cells to CS1 (fibronectin) peptide conjugated ovalbumin", "format": "cell-based", "details": "Table 2; Ramos cell adhesion to CS1 conjugated ovalbumin, 30 minutes at 37° C.", "summary_of_the_method": "(§1)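 Calcein AM-labelled Ramos cells (2.5×10^5/well) with compound, up to 100 μM, added to plates coated with CS1 peptide–ovalbumin (0.5 μg/ml) and blocked with 3% BSA. Binding buffer TBS pH 7.5 with 1 mM each MgCl2, CaCl2, MnCl2; 30 min, 37 °C. After washes, adherent cells lysed and read fluorometrically; […].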", "units": {"IC50": "µM"}, "values": [{"compound": "Cc1ccccc1NC(=O)Nc1ccc(Cn2cccc(NC(=O)N[C@@H](CC(=O)O)c3ccc4c(c3)OCO4)c2=O)cc1", "IC50": 0.001}]}, {"molecular_target": "T1, α4β1 integrin", "experiment": "Adhesion of calcein-labeled Ramos cells to CS1 (fibronectin) peptide conjugated ovalbumin", "format": "cell-based", "details": "Table 3; Ramos cell adhesion to CS1 conjugated ovalbumin, 30 minutes at 37° C.", "summary_of_the_method": "as §1", "units": {"IC50": "µM"}, "values": [{"compound": "COCCOCCOCCOc1ccn(Cc2ccccc2Cl)c(=O)c1NC(=O)N[C@@H](CC(=O)O)c1ccc(C)cc1", "IC50": 0.002}, {"compound": "Cc1cc(C)cc([C@H](CC(=O)O)NC(=O)Nc2c(O)ccn(Cc3ccccc3Cl)c2=O)c1", "note": "[(3S)-3-{[({1-[(2-chlorophenyl)methyl]-4-hydroxy-2-oxo-1,2-dihydro-3-pyridinyl}amino)carbonyl]amino}-3-(3,5-dimethylphenyl)propanoic acid]", "IC50": 0.015}, {"compound": "COCCOCCOc1ccn(Cc2ccccc2Cl)c(=O)c1NC(=O)N[C@@H](CC(=O)O)c1ccc(C)cc1", "IC50": 0.002}]}, {"molecular_target": "T1, α4β1 integrin", "experiment": "Adhesion of calcein-labeled Ramos cells to CS1 (fibronectin) peptide conjugated ovalbumin", "format": "cell-based", "details": "Table 4; Ramos cell adhesion to CS1 conjugated ovalbumin, 30 minutes at 37° C.", "summary_of_the_method": "as §1", "units": {"IC50": "µM"}, "values": [{"compound": "Cc1ccc([C@H](CC(=O)O)NC(=O)Nc2c(O)cc(C)n(Cc3ccccc3)c2=O)cc1", "IC50": 0.035}, {"compound": "Cc1ccc([C@H](CC(=O)O)NC(=O)Nc2cccn(Cc3ccccc3C)c2=O)cc1", "IC50": 0.1}, {"compound": "Cc1ccc([C@H](CC(=O)O)NC(=O)Nc2c(O)ccn(Cc3ccccc3)c2=O)cc1", "IC50": 0.03}, {"compound": "O=C(O)C[C@H](NC(=O)Nc1cccn(CCCOc2ccccc2)c1=O)c1ccc2c(c1)OCO2", "IC50": 14}, {"compound": "CCCS(=O)(=O)Nc1ccn(Cc2ccccc2Cl)c(=O)c1NC(=O)N[C@@H](CC(=O)O)c1ccc(C)cc1", "IC50": 0.03}, {"compound": "O=C(O)C[C@H](NC(=O)Nc1cccn(Cc2cccs2)c1=O)c1cccc(F)c1", "IC50": 3}, {"compound": "COc1cc(OC)cc([C@H](CC(=O)O)NC(=O)Nc2cccn(Cc3cccs3)c2=O)c1", "IC50": 0.7}, {"compound": "Cc1ccc([C@H](CC(=O)O)NC(=O)Nc2cccn(Cc3cc(N)ccc3Br)c2=O)cc1", "IC50": 0.08}, {"compound": "Cc1ccc([C@H](CC(=O)O)NC(=O)Nc2cccn(Cc3c(N)cccc3Cl)c2=O)cc1", "IC50": 2}, {"compound": "Cc1ccc([C@H](CC(=O)O)NC(=O)Nc2cccn(Cc3ccccc3Cl)c2=O)cc1", "IC50": 0.1}]}, {"molecular_target": "T1, α4β1 integrin", "experiment": "Adhesion of calcein-labeled Ramos cells to CS1 (fibronectin) peptide conjugated ovalbumin", "format": "cell-based", "details": "Table 5; Ramos cell adhesion to CS1 conjugated ovalbumin; dose required to give 50% inhibition", "summary_of_the_method": "as §1", "units": {"IC50": "µM"}, "values": [{"compound": "Cc1ccc(C(CC(=O)O)NC(=O)Nc2c(O)ccn(Cc3ccccc3Cl)c2=O)o1", "note": "(centres unmarked)", "IC50": 0.025}, {"compound": "CCCOc1ccc([C@H](CC(=O)O)NC(=O)Nc2c(O)ccn(Cc3ccccc3Cl)c2=O)cc1OCCC", "note": "[(3S)-3-[({[1-(2-chlorobenzyl)-4-hydroxy-2-oxo-1,2-dihydropyridin-3-yl]amino}carbonyl)amino]-3-(3,4-dipropoxyphenyl)propanoic acid]", "IC50": 0.003}, {"compound": "Cc1ccc([C@H](CC(=O)O)NC(=O)Nc2c(O)c(C)cn(Cc3ccc(Cl)cc3)c2=O)cc1", "IC50": 0.02}, {"compound": "Cc1ccc(N(CC(=O)O)NC(=O)Nc2c(O)ccn(Cc3ccccc3Cl)c2=O)cc1", "IC50": "> 10"}, {"compound": "Cc1ccc([C@H](CC(=O)O)NC(=O)Nc2c(O)ccn(Cc3cc(F)ccc3Cl)c2=O)cc1", "IC50": 0.014}, {"compound": "Cc1ccc([C@H](CC(=O)O)NC(=O)Nc2c(O)ccn(Cc3c(F)cccc3F)c2=O)cc1", "note": "[(3S)-3-[({[1-(2,6-difluorobenzyl)-4-hydroxy-2-oxo-1,2-dihydropyridin-3-yl]amino}carbonyl)amino]-3-(4-methylphenyl)propanoic acid]", "IC50": 0.008}, {"compound": "Cc1ccc([C@H](CC(=O)O)NC(=O)Nc2cc(C(F)(F)F)cn(Cc3ccccc3)c2=O)cc1", "IC50": 1.5}, {"compound": "Cc1ccc(C[C@@H](CC(=O)O)NC(=O)Nc2c(O)ccn(Cc3ccccc3Cl)c2=O)cc1", "IC50": 30}, {"compound": "CCOc1ccc([C@H](CC(=O)O)NC(=O)Nc2c(O)c(C)cn(Cc3ccccc3Cl)c2=O)cc1OCC", "note": "[(3S)-3-[({[1-(2-chlorobenzyl)-4-hydroxy-5-methyl-2-oxo-1,2-dihydropyridin-3-yl]amino}carbonyl)amino]-3-(3,4-diethoxyphenyl)propanoic acid]", "IC50": 0.0006}, {"compound": "Cc1ccc([C@H](CC(=O)O)NC(=O)Nc2c(O)ccn(Cc3c(Cl)cccc3C#N)c2=O)cc1", "note": "[(3S)-3-[({[1-(2-chloro-6-cyanobenzyl)-4-hydroxy-2-oxo-1,2-dihydropyridin-3-yl]amino}carbonyl)amino]-3-(4-methylphenyl)propanoic acid]", "IC50": 0.007}, {"compound": "Cc1ccc([C@H](CC(=O)O)NC(=O)Nc2c(O)c(C)cn(Cc3ccccc3Cl)c2=O)cc1", "note": "[(3S)-3-[({[1-(2-chlorobenzyl)-4-hydroxy-5-methyl-2-oxo-1,2-dihydropyridin-3-yl]amino}carbonyl)amino]-3-(4-methylphenyl)propanoic acid]", "IC50": 0.005}, {"compound": "COc1cccc(Cl)c1Cn1ccc(O)c(NC(=O)N[C@@H](CC(=O)O)c2ccc(C)cc2)c1=O", "note": "[(3S)-3-[({[1-(2-chloro-6-methoxybenzyl)-4-hydroxy-2-oxo-1,2-dihydropyridin-3-yl]amino}carbonyl)amino]-3-(4-methylphenyl)propanoic acid]", "IC50": 0.003}, {"compound": "Cc1ccc([C@H](CC(=O)O)NC(=O)Nc2c(O)ccn(Cc3ccccc3OC(F)(F)F)c2=O)cc1", "IC50": 0.025}, {"compound": "O=C(O)C[C@@H](Cc1cccc(C(F)(F)F)c1)NC(=O)Nc1c(O)ccn(Cc2ccccc2Cl)c1=O", "IC50": 0.35}, {"compound": "Cc1ccccc1C[C@H](CC(=O)O)NC(=O)Nc1c(O)ccn(Cc2ccccc2Cl)c1=O", "IC50": 0.08}, {"compound": "Cc1ccc([C@H](CC(=O)O)NC(=O)Nc2c(O)c(C)c(C)n(Cc3ccccc3Cl)c2=O)cc1", "note": "[(3S)-3-[({[1-(2-chlorobenzyl)-4-hydroxy-5,6-dimethyl-2-oxo-1,2-dihydropyridin-3-yl]amino}carbonyl)amino]-3-(4-methylphenyl)propanoic acid]", "IC50": 0.006}]}, {"molecular_target": "T1, α4β1 integrin", "experiment": "Adhesion of calcein-labeled Ramos cells to CS1 (fibronectin) peptide conjugated ovalbumin", "format": "cell-based", "details": "Table 6; Ramos cell adhesion to CS1 conjugated ovalbumin, 30 minutes at 37° C.", "summary_of_the_method": "as §1", "units": {"IC50": "µM"}, "values": [{"compound": "COc1cccc([C@H](CC(=O)O)NC(=O)Nc2c(O)c(C)cn(Cc3ccccc3Cl)c2=O)c1", "IC50": 0.003}, {"compound": "Cc1ccc([C@H](CC(=O)O)NC(=O)Nc2c(O)c3c(n(Cc4ccc(Cl)cc4)c2=O)CCC3)cc1", "IC50": 0.05}, {"compound": "Cc1ccc([C@H](CC(=O)O)NC(=O)Nc2c(O)c(C)c(C)n(Cc3ccccc3Cl)c2=O)cc1C", "IC50": 0.04}, {"compound": "CCOc1cccc([C@H](CC(=O)O)NC(=O)Nc2c(O)ccn(Cc3c(Cl)cccc3OCC)c2=O)c1", "note": "[(3S)-3-[({[1-(2-chloro-6-ethoxybenzyl)-4-hydroxy-2-oxo-1,2-dihydropyridin-3-yl]amino}carbonyl)amino]-3-(3-ethoxyphenyl)propanoic acid]", "IC50": 0.003}, {"compound": "Cc1ccc([C@H](CC(=O)O)NC(=O)Nc2c(O)c3c(n(Cc4c(C)cccc4Cl)c2=O)CCC3)cc1", "IC50": 0.02}, {"compound": "Cc1cn(Cc2ccccc2Cl)c(=O)c(NC(=O)N[C@@H](CC(=O)O)c2cccc(OC(F)(F)F)c2)c1O", "IC50": 0.01}]}, {"molecular_target": "T1, α4β1 integrin", "experiment": "Adhesion of calcein-labeled Ramos cells to CS1 (fibronectin) peptide conjugated ovalbumin", "format": "cell-based", "details": "Table 7; Ramos cell adhesion to CS1 conjugated ovalbumin; dose required to give 50% inhibition", "summary_of_the_method": "as §1", "units": {"IC50": "µM"}, "values": [{"compound": "Cc1cn(Cc2c(C)cccc2Cl)c(=O)c(NC(=O)N[C@@H](CC(=O)O)c2ccc3c(ccn3C)c2)c1O", "IC50": 0.004}, {"compound": "CCOc1cccc(Cl)c1Cn1c(C)c(C)c(O)c(NC(=O)N[C@@H](CC(=O)O)c2ccc(C)cc2)c1=O", "IC50": 0.004}, {"compound": "Cc1ccc([C@H](CC(=O)O)NC(=O)Nc2c(O)c(C)cn(Cc3cc(S(=O)(=O)N4CCCC4)ccc3Cl)c2=O)cc1", "IC50": 0.015}, {"compound": "CCCc1ccc([C@H](CC(=O)O)NC(=O)Nc2c(O)c(C)cn(Cc3ccccc3Cl)c2=O)cc1", "IC50": 0.012}, {"compound": "Cc1cccc(Cl)c1Cn1c2c(c(O)c(NC(=O)N[C@@H](CC(=O)O)c3ccc4c(c3)CCC4)c1=O)CCC2", "IC50": 0.01}, {"compound": "CCCc1ccc([C@H](CC(=O)O)NC(=O)Nc2c(O)c3c(n(Cc4ccccc4Cl)c2=O)CCC3)cc1", "IC50": 0.017}, {"compound": "O=C(O)C[C@H](NC(=O)Nc1c(O)c2c(n(Cc3ccccc3Cl)c1=O)CCC2)c1cccc(OC(F)F)c1", "note": "[(3S)-3-{[({1-[(2-chlorophenyl)methyl]-4-hydroxy-2-oxo-2,5,6,7-tetrahydro-1H-cyclopenta[b]pyridin-3-yl}amino)carbonyl]amino}-3-{3-[(difluoromethyl)oxy]phenyl}propanoic acid]", "IC50": 0.005}, {"compound": "CCCOc1cccc([C@H](CC(=O)O)NC(=O)Nc2c(O)c3c(n(Cc4ccccc4Cl)c2=O)CCC3)c1", "IC50": 0.015}, {"compound": "CCOc1cccc(Cl)c1Cn1ccc(O)c(NC(=O)N[C@@H](CC(=O)O)c2cccc(OC(C)C)c2)c1=O", "note": "[(3S)-3-[({[1-(2-chloro-6-ethoxybenzyl)-4-hydroxy-2-oxo-1,2-dihydropyridin-3-yl]amino}carbonyl)amino]-3-(3-isopropoxyphenyl)propanoic acid]", "IC50": 0.003}, {"compound": "Cc1ccc([C@H](CC(=O)O)NC(=O)Nc2c(O)c(C)cn(Cc3cc(C(F)(F)F)ccc3Cl)c2=O)cc1", "IC50": 0.006}, {"compound": "CC(C)Oc1cc([C@H](CC(=O)O)NC(=O)Nc2c(O)c3c(n(Cc4ccccc4Cl)c2=O)CCC3)ccc1Cl", "note": "[(3S)-3-[({[1-(2-chlorobenzyl)-4-hydroxy-2-oxo-2,5,6,7-tetrahydro-1H-cyclopenta[b]pyridin-3-yl]amino}carbonyl)amino]-3-(4-chloro-3-isopropoxyphenyl)propanoic acid]", "IC50": 0.038}, {"compound": "CCOc1ccc2cc([C@H](CC(=O)O)NC(=O)Nc3c(O)c(C)cn(Cc4c(Cl)cccc4OCC)c3=O)ccc2c1", "IC50": 0.006}, {"compound": "Cc1cccc(Cl)c1Cn1c2c(c(O)c(NC(=O)N[C@@H](CC(=O)O)c3cccc(N(C)S(C)(=O)=O)c3)c1=O)CCC2", "note": "[(3S)-3-{[({1-[(2-chloro-6-methylphenyl)methyl]-4-hydroxy-2-oxo-2,5,6,7-tetrahydro-1H-cyclopenta[b]pyridin-3-yl}amino)carbonyl]amino}-3-{3-[methyl(methylsulfonyl)amino]phenyl}propanoic acid]", "IC50": 0.0013}, {"compound": "Cc1ccc([C@H](CC(=O)O)NC(=O)Nc2c(O)c(C)cn(Cc3c(Cl)cccc3OCc3ccccc3)c2=O)cc1", "IC50": 0.01}, {"compound": "O=C(O)C[C@H](NC(=O)Nc1c(O)c2c(n(Cc3ccccc3Cl)c1=O)CCC2)c1ccc(F)cc1", "IC50": 0.009}, {"compound": "CN(c1cccc([C@H](CC(=O)O)NC(=O)Nc2c(O)c3c(n(Cc4ccccc4Cl)c2=O)CCC3)c1)S(C)(=O)=O", "note": "[(3S)-3-{[({1-[(2-chlorophenyl)methyl]-4-hydroxy-2-oxo-2,5,6,7-tetrahydro-1H-cyclopenta[b]pyridin-3-yl}amino)carbonyl]amino}-3-{3-[methyl(methylsulfonyl)amino]phenyl}propanoic acid]", "IC50": 0.0016}, {"compound": "O=C(O)C[C@H](NC(=O)Nc1c(O)c2c(n(Cc3ccccc3Cl)c1=O)CCC2)c1ccc(C2CC2)cc1", "IC50": 0.025}]}]}
